# Where two headings read alike, the source gives them in different places.
# Tested on: phosphorylation of Histone H3 in HeLa cells
# Test: HeLa cell 1-hour phospho-histone assay
# Assay type: cell-based
# Conditions: Homo sapiens, % of cells pHH3 positive, read-out: inhibitory activity (EC50) in the phospho-histone H3 assay
# Procedure: HeLa Cell 1-Hour Phospho-Histone Assay
# The purpose of this assay is to test the inhibitory effect of Aurora compounds with respect to phosphorylation of Histone H3 in the cellular context. HeLa cells (9×10^4/well) are plated in black 96-well flat-bottom tissue culture plates and incubated for 40 hours prior to compound addition. Compounds are serially diluted in DMSO, followed by dilution into MEM containing 10 mM HEPES; 10 ul/well of diluted compounds are added to cells (0.5% DMSO final). Cells are incubated for 1 hour at 37° C. in 5% CO2. Cells are then fixed with 3.7% formaldehyde for 10 minutes, washed with wash buffer (1% goat serum and 0.1% Tween 20 in PBS), then permeabilized with 0.5% Triton X in PBS for 15 minutes. After washing with wash buffer, cells are incubated with primary antibody (Upstate #06-507 anti-phospho-histone (Ser 10) antibody (pHH3) for 1 hour at 10 ug/ml. After 2 washes with wash buffer, cells are incubated with secondary antibody (Molecular Probes #A11034 goat anti-rabbit Alexa-488 for 1 hour at 1 ug/ml+Hoechst 33342 nuclear dye at 1 ug/ml (Molecular Probes). Cells are washed 2 times with wash buffer, and buffer replaced with PBS. Plates are scanned on the Cellomics Array Scan (6 fields, ˜2000 cells/well) and % of cells that are pHH3 positive were calculated using the Cellomics algorithm.
Structure (SMILES),EC50,EC50 (unit inferred)
"CNc1nccc(-c2cccnc2Oc2ccc(Nc3nnc(-c4cc(C)cs4)c4c3CCC4)cc2)n1 [Example 122, N-(4-((3-(2-(methylamino)-4-pyrimidinyl)-2-pyridinyl)oxy)phenyl)-4-(4-methyl-2-thienyl)-6,7-dihydro-5H-cyclopenta[d] pyridazin-1-amine]",< 10 µM,< 1 µM
"CNc1nccc(-c2cccnc2Oc2ccc(Nc3nnc(-c4ccccc4)c4c3CCCC4)cc2)n1 [Example 123, N-(4-((3-(2-(methylamino)-4-pyrimidinyl)-2-pyridinyl)oxy)phenyl)-4-phenyl-5,6,7,8-tetrahydro-1-phthalazinamine]",< 10 µM,< 1 µM
